Key:
Format in all cases: cell-based
[1] = test system: U2OS cells; assay: Colony survival assay, U2OS cells; details: varying cisplatin, 48 hours
Protocol: (§1) H1975 cells were plated in 24-well plates at 50,000 cells/well (for 50 µM inhibitor treatment) or 20,000 cells/well (for […] inhibitor treatment). U2OS and A549 cells were plated in 24-well plates at 5000 cells/well. The next day, cells were treated with varying concentrations of cisplatin, either with or without added inhibitor compound. After 48 hours of cisplatin+compound treatment, the cells were washed 3 times with PBS×1 and fresh media applied. After 4 days of recovery, the cells were stained with methylene blue and imaged using a Nikon SMZ25 stereomicroscope. The images were analyzed using the ImageJ (National Institutes of Health) area measurement tool to quantify total colony size in each well.

[2] = test system: H1975 cells; assay: Colony survival assay, H1975 cells; details: H1975, 5 μM cisplatin
Protocol: as §1
(§2) Cells were plated in 24-well plates at 50,000 cells/well (H1975 line) or 10,000 cells/well (A549 line). The next day, cells were treated with varying concentrations of cisplatin ([…]), with or without 50 μM compound. For the untreated control wells containing only cisplatin, DMSO was applied in place of the compound. After 48 hours of cisplatin+compound treatment, the cells were washed 3 times with PBS and fresh media was applied. After 4 days of recovery, the cells were stained with methylene blue and imaged using a Nikon SMZ25 stereomicroscope. The images were analyzed using the ImageJ (National Institutes of Health) area measurement tool to quantify total colony size in each well.
(§3) In order to assess the ability of the selected compounds to sensitize cells during cisplatin treatment, the inventors established a colony survival assay comparing the viability of cells treated with cisplatin alone or with combined treatment of cisplatin and 50 μM compound. For the compound screen, we used two lung cancer cell lines: human non-small lung carcinoma H1975 cells, and epithelial lung adenocarcinoma A549 cells. Out of ten compounds tested, compounds c #2 and c #3 were identified with the most significant sensitization effect and were chosen for future characterization. […] Survival rate was reduced from 90% in 5 μM cisplatin treatment to 50% survival in the combined treatment (FIGS. 11A-B). H1975 cells presented similar behavior following doxorubicin treatment (FIG. 11C). IC50 was calculated using linear regression, presenting a clear reduction of cisplatin's IC50 in all treatments.

[3] = test system: A549 cells; assay: Colony survival assay, A549 cells; details: A549, 5 μM cisplatin
Protocol: as §1, §2, §3

In the case of CCCC(=O)Nc1cccc(C(=O)Nc2nnc(COC)s2)c1 [Compound 9], the “cell survival with cisplatin plus inhibitor” value [1] is reported as “no activity”.
In the case of N.N.[Cl][Pt][Cl] [cisplatin, cis-diamminedichloroplatinum(II), reference compound], the “survival rate, cisplatin alone” value [2] is reported as 90% and the “survival rate, cisplatin alone” value [3] is reported as 90%.

From US20250255876A1, “COMPOSITIONS AND METHODS FOR CANCER TREATMENT” (ARIEL SCIENTIFIC INNOVATIONS LTD., priority 2021, published 2025)
